Activity calls are given as the source filed them.

Assay [1] in a line: cells. In kind it is functional, cell-based.
Assay [2] in a line: cells. It counts as functional, cell-based. The source holds these as a separate data set.
The target in assay [3] is Induced myeloid leukemia cell differentiation protein Mcl-1 (Homo sapiens, UniProt Q07820). It counts as functional.
Assay [4] addresses Heat shock protein HSP 90-alpha (Homo sapiens, UniProt P07900). It counts as functional, organism-based.
Assay [5] is described as follows: HEp-2 cell cytotoxicity, dose response, cytotoxicity control for RSV inhibitor project, HTS (AID 2410). It counts as functional. As to conditions: human respiratory syncytial virus.
The next assay has as its target T1, Protein skinhead-1 (Caenorhabditis elegans, UniProt P34707).
T1 sequence (P34707 whole entry): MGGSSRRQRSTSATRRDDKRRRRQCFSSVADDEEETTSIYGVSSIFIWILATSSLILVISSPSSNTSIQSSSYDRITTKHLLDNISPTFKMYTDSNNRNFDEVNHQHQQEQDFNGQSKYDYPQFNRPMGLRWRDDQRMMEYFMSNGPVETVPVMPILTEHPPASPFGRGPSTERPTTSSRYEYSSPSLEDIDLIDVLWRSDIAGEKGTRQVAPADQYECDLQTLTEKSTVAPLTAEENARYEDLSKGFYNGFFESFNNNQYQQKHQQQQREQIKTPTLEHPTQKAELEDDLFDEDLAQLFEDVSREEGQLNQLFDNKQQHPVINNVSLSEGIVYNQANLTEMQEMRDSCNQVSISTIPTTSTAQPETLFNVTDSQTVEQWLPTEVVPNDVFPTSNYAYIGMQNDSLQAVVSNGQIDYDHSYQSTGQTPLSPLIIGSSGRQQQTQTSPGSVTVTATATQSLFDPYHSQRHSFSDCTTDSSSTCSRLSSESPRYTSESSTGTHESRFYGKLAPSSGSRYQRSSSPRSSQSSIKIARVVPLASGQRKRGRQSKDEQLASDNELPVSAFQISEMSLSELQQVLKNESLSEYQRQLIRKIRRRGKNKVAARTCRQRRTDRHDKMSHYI
In kind it is functional.

A further assay has as its system H4. The assay is described as follows: Luminescence Cell-Based Dose Response HTS to Identify Activators of 5'UTR Stem-Loop Driven Prion Protein mRNA Translation in H4 Neuroglioblastoma Cells. [Related pubchem assays: 1829 (Project Summary), 1814 (Primary HTS)]. It counts as functional. As to conditions: Homo sapiens.
Assay [6] has as its target T2, Oxysterols receptor LXR-beta (Homo sapiens, UniProt P55055).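 Note: agonist activity at LXR measured by a cell-based luminescence readout across a dose range, run as a counterscreen for daf-12 agonists; HEK293 cells with Gal4-LXR fusion and GAL4-driven luciferase reporter; potency for activation of Gal4-LXR reporter so compounds are agonists.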
T2 sequence (P55055 whole entry): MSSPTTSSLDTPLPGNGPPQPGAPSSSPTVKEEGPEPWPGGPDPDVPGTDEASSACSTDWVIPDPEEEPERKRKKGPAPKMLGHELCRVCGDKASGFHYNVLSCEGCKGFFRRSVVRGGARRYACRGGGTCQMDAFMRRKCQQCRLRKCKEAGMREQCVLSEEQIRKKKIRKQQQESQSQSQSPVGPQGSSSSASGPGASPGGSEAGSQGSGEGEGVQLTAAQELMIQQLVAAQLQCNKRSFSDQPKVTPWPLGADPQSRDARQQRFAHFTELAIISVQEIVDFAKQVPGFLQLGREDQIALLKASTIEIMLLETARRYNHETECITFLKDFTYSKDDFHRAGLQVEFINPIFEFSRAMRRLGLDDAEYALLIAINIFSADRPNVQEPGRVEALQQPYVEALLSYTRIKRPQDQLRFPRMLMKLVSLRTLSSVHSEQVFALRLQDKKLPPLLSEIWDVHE
It counts as functional, cell-based.

For the next assay, the target named is Nonstructural protein 1 (Influenza A virus, UniProt Q194T2). In kind it is functional, Influenza A virus (A/California/07/2009(H1N1)).
Nonstructural protein 1, sequence (Q194T2 whole entry, the tested form may be a part): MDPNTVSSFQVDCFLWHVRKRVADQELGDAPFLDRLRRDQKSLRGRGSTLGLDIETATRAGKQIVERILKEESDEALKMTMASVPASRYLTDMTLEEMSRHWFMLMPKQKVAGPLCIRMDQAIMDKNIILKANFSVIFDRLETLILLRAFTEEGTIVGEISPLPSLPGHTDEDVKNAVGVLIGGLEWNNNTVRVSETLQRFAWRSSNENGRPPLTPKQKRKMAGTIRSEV
Assay [7] in a line: inhibitors of HIV Env-driven cell fusion, dose response, cherry-pick (AID 652057). In kind it is functional, cell-based.
Assay [8] can be described thus: CEM21 lymphoblast cell cytotoxicity, dose response, cytotoxicity control for viral fusion inhibitor project, CellTiter-Glo luminescence, cherry-picked (AID 652042).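 Note: potency for signal decrease meaning cytotoxicity.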 In kind it is functional, cell-based.
The nature of assay [9]: ZM109 Env clade C HIV-1 fusion inhibitors, dose response, HeLa effector, CEM target cells, luciferase, cherry-pick (AID 652058). It counts as functional, cell-based.
A short description of assay [10]: inhibitors of clade B AD8 Env fusion, dose response, cell-based, cherry-pick (AID 652062).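 Note: luciferase signal from cell-cell fusion driven by HIV-1 clade B AD8 Env; potency is for inhibitors of fusion seen as a drop in luminescence.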 In kind it is functional.
The nature of assay [11]: cells. It counts as functional.
Assay [12] is described as follows: Luminescence Cell-Based Dose Retest to Confirm Inhibitors of Cancer Stem Cells. [Related pubchem assays (depositor defined):AID2717, AID2721]. In kind it is functional. As to conditions: Homo sapiens.
Another assay has as its system HeLa. As to the kind of experiment: HeLa cell cytotoxicity, dose response, cytotoxicity control for MITF activator project, CellTiter-Glo luminescence, cherry-pick samples (AID 540259). It counts as functional, cell-based. As to conditions: Homo sapiens.
Assay [13] in a line: inhibitors of intracellular T. cruzi replication, confirmation, NIH3T3 host cells, beta-gal luminescence (AID 2044).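 Note: intracellular parasites grown in NIH/3T3 mouse fibroblasts as host cells; luminescent beta-galactosidase reporter signal from transgenic T. cruzi replicating inside host cells; inhibitors lower the luminescence signal.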 In kind it is functional, cell-based.
Assay [14] deals with Glyceraldehyde-3-phosphate dehydrogenase (Homo sapiens, UniProt P04406).
Glyceraldehyde-3-phosphate dehydrogenase, sequence (P04406 whole entry): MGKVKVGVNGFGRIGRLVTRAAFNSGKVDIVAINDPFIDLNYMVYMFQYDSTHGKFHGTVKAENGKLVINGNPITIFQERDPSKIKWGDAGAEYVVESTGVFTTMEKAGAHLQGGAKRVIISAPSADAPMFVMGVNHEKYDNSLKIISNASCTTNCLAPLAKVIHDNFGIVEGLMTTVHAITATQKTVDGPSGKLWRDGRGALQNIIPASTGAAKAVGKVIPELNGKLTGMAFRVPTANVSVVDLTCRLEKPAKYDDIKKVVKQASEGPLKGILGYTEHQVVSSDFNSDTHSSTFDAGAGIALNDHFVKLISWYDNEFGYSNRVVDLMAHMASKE
A further assay has as its system Vero. The assay is described as follows: Vero cell cytotoxicity, cytotoxicity control for flavivirus capping enzyme inhibitors (AID 588742). As to conditions: Chlorocebus sabaeus. It counts as functional.
A further assay deals with Genome polyprotein (dengue virus type 2, UniProt P29990). The assay is described as follows: Dengue-2 NS5 methyltransferase inhibitors, primary screen, biochemical, confirmation dose response (AID 588689). It counts as functional.
Genome polyprotein, sequence (P29990 2492-3391 limits assumed): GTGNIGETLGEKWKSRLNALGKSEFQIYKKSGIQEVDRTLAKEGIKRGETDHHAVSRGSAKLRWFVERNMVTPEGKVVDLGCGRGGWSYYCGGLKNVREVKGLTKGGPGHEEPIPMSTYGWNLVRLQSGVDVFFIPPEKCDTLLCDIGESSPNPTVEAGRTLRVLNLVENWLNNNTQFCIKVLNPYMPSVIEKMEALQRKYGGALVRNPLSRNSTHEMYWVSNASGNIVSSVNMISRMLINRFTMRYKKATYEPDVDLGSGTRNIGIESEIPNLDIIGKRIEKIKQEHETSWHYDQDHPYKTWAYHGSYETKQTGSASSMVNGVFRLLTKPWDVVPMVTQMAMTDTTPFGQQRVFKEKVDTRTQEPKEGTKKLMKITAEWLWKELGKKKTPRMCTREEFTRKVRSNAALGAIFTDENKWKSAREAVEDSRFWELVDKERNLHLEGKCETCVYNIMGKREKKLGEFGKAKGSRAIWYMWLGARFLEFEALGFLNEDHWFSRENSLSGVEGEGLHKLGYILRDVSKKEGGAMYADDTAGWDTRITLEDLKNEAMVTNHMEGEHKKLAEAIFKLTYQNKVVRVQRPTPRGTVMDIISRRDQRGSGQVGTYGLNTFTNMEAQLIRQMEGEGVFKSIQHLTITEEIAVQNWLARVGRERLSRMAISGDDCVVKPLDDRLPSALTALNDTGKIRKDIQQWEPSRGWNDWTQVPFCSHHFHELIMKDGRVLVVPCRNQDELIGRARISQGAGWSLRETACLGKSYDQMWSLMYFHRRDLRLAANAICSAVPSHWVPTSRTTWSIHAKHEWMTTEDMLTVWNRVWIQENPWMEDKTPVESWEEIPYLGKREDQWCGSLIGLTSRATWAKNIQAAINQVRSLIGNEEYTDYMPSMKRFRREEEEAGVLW

Induced myeloid leukemia cell differentiation protein Mcl-1, sequence (Q07820 whole entry): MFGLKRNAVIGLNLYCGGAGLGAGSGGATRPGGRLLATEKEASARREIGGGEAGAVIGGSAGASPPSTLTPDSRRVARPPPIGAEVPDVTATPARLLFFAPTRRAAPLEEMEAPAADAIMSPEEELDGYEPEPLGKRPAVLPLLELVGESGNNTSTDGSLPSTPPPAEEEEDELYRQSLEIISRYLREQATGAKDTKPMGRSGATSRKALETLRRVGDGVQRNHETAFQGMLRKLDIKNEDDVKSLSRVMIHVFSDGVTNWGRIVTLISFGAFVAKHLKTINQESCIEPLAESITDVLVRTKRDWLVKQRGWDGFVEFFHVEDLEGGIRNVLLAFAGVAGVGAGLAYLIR

Consider `Cc1ccc(CSc2nnc(CCCCCNC(=O)OC(C)(C)C)o2)cc1`, for which the EC50 in “cells [1]” and in “cells [2]” was > 350 µM (not active) throughout. As for `COCCN1Cc2cccc(C(=O)Nc3cccc(C)c3C)c2C1=O`, the IC50 in [3] is on record as 6.79 µM (not active).

Regarding `Cc1ccc(-n2ncc3c2CCCC3NC(=O)c2ccccc2N2CCOCC2)cc1C` (stereo unspecified), in [4], the AC50 is 0.984 µM (active). With `O=C(C1=NN[C@@H]2C(=O)N(c3cccc(C(F)(F)F)c3)C(=O)[C@H]12)C(c1ccccc1)c1ccccc1`, the EC50 in “cells [1]” and in “cells [2]” was > 350 µM (not active) throughout. For `Cc1ccc(-c2cc(C(F)F)n3ncc(C(=O)N4CCN(c5cccc(C)c5C)CC4)c3n2)cc1`, the CC50 in assay [5] is 10.2 µM (active). For the same compound, the IC50 at Protein skinhead-1 was > 100 µM (inactive). For `O=C(CCCc1ccccc1)NC12CC3CC(CC(C3)C1)C2`, the EC50 in the assay with H4 is > 120 µM (not active); in [6], > 67.5 µM (inactive). For the compound `Cc1ccc(S(=O)(=O)N2CCOCC2)cc1NC(=O)CNCc1ccccn1`, the IC50 on Nonstructural protein 1 was 18 µM (active). With `O=C(/C=C/c1ccccc1)NCCc1nc2ccccc2[nH]1`, the EC50 in the assay “cells [1]” and in the assay “cells [2]” was > 350 µM (not active) each time. Take `O=C(C[C@H]1CC[C@@H](NC(=O)c2ccccc2)[C@H](CO)O1)NCc1ccc(Oc2ccccc2)cc1`: the AC50 in [7] is 3.8 µM (active); in [8], 62.1 µM (active); in assay [9], 0.349 µM (active); in [10], 4.3 µM (active). Take `COc1cccc(NC(=O)c2cnc(SC)nc2)c1`: the IC50 in the assay “cells [11]” is 15.3 µM (active). As for `Cc1ccc(-n2ncc3ccccc3c2=O)cc1Cl`, the EC50 in assay [6] was > 67.6 µM (inactive). Consider `Cc1ccc(N=Nc2ccc(O)cc2)c(Br)c1`, for which the AC50 in assay [12] is 6.26 µM (active); in [4] it was 7.83 µM (active); in the assay on HeLa, 39.2 µM (active). Also, in assay [6], the EC50 was > 67.5 µM (inactive). Regarding `CC(C)C#Cc1ccc2c(c1)O[C@@H](CN(C)C(=O)C1CCCCC1)[C@H](C)CN([C@H](C)CO)S2(=O)=O`, the results for the AC50 in [7] and in assay [8] were 21.2 µM (active) and 21.3 µM (active), respectively. `CC(C)N1C(=O)/C(=C\c2nc3ccccc3c(=O)n2-c2ccccc2)c2ccccc21`: the EC50 in assay [13] was 1.36 µM (active). The AC50 in [12] was 8.71 µM (active). On Nonstructural protein 1, the IC50 was 50.5 µM (active). Turning to `OC(c1ccccn1)(c1ccccn1)c1ccccn1`, the IC50 at Nonstructural protein 1 is 10.9 µM (active). Take `Cc1cc(N/C=C/C(=O)c2ccc(Br)cc2)no1`: the EC50 in the assay “cells [1]” is > 350 µM (not active); in the assay “cells [2]”, 59.3 µM (active). On to `Cc1ccc(SCC(=O)Nc2nnc[nH]2)cc1`, for which the IC50 in assay [14] is > 10 µM (inconclusive). `Nc1ccc(C2=Nc3cccc4cccc(c34)N2)cc1`: the IC50 in assay [3] was 2.86 µM (active). Consider `Cc1ccccc1N=C(S)N(CCN(C)C)C(C)c1ccccn1` (stereo unspecified), for which the IC50 at Nonstructural protein 1 is 64.5 µM (active). For the compound `CO[C@@H](CN(C)S(=O)(=O)c1ccc(Cl)cc1)[C@H](C)CN([C@@H](C)CO)S(=O)(=O)c1cccc(Cl)c1`, the AC50 is 20 µM (active) in [7], 19.1 µM (active) in [9] and 8.73 µM (active) in [10].

Consider `COc1ccc(-c2cc(C(F)(F)F)c3c(=O)n(-c4ccccc4)[nH]c3n2)cc1`, for which, in the assay on Vero, the CC50 is > 40 µM (active). Further, on Genome polyprotein, the IC50 was 44.2 µM (active). As for `Nc1nnc(Sc2ncccc2[N+](=O)[O-])s1`, the IC50 in “cells [11]” was 15.3 µM (active). For the compound `CN(C)c1ccc(N=Nc2nccs2)cc1`, in [6], the EC50 was > 67.4 µM (inactive).

(Values after ChEMBL document CHEMBL1201862, “PubChem BioAssay data set” (2004).)
